Reference: patent publication US10376561B1, “Fasciola hepatica fatty acid binding protein a novel anti-inflammatory molecule” (priority 2015, dated 2019)

How the values were obtained:
[1] = test system: TLR4; test: NF-κB activation in TLR4-transfected HEK cells (SEAP, A655); format: cell-based, human; settings: PMB 100 μM; LPS 5 μg/ml
Procedure: To investigate the mechanism of interaction between Fh12 and TLR4 we used Human Embryonic Kidney 293 cells (HEK293, InvivoGen). These cells (HEK293-TLR4) are co-transfected with genes encoding cluster differentiation antigen-14 (CD14), myeloid differentiation protein-2 (MD2), toll-like receptor-4 (TLR4) co-receptor, and a SEAP reporter gene (HEK293-TLR4). Cells were maintained in DMEM supplemented with 4.5 g/L glucose, 10% fetal bovine serum (FBS), 50 U/ml penicillin, 50 μg/ml streptomycin, 100 μg/ml Normocin™ and 2 mM L-glutamine. For all experiments a cell suspension was prepared using HEK-Blue™ Detection medium at 14×10^4 cells/ml. For stimulation experiments, cells were seeded at 2.52×10^4 cells/well in 96-well flat-bottom plates and treated with Fh12 (from 0.62 to 10 μg/ml) or LPS (5 μg/ml), and incubated at 37° C., 5% CO2 for 24 h. In the inhibition experiments, cells were cultured with Fh12 (0.6 to 10 μg/ml) 30 min prior LPS (5 μg/ml) stimulation. […] All readings were done at 655 nm after 24 h of LPS-stimulation. […] The percent of reduction (R %) of the absorbance values was calculated by the formula R (%)=100−[(A−C)×100)/(B−C)], where A is the mean A655 of three replicates obtained when cells were stimulated with Fh12, and B is the mean A665 value obtained when cells were exposed to LPS, and C is the mean A655 of three replicates obtained when cells were stimulated with PBS. […]

[2] = molecular target: T1, human LBP (Homo sapiens, UniProt P18428); test: LPS-binding protein (LBP)/LPS interaction assay (Endoblock LBP ELISA); settings: Polymyxin-B 100 μM
T1 construct: purchased Hycult Biotech
T1 sequence (P18428 26-481): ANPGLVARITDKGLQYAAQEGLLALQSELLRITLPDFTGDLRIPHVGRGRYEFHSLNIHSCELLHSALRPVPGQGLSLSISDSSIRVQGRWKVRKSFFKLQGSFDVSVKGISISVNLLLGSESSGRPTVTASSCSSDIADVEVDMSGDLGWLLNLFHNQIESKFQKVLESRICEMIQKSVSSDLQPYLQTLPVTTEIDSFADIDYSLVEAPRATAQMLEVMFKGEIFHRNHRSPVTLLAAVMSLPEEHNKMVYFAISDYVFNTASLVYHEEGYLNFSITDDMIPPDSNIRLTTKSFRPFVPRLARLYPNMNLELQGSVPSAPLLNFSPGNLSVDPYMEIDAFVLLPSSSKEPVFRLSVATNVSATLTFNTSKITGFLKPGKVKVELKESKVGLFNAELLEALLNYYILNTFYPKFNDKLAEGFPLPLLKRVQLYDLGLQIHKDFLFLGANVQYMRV
Procedure: The Endoblock LBP ELISA test kit (Hycult Biotech, PA, USA) was used according to the manufacturer's instructions to investigate whether Fh12 disrupts the interaction between LPS and LBP. Briefly, binding of biotinylated LPS to pre-captured human LBP was assessed using streptavidin peroxidase, followed by addition of tetramethylbenzidine. Fh12 (0.05-10 μg/ml) was pre-incubated for 30 min with biotinylated-LPS and added to wells pre-coated with anti-LBP+LBP. PMB (0.2-100 μM), which competes with LBP for binding to LPS, was used as a control for inhibition by pre-incubation with biotinylated-LPS.
To investigate the mechanism through which Fh12 specifically blocks the interaction between LPS and TLR4, we firstly assessed whether Fh12 exposure alters either the interaction of LPS with […] (LBP), or the expression of any TLR4 complex component. To assess whether Fh12 prevents binding of LPS to LBP, we used an LBP-ELISA kit, which detects binding of biotinylated LPS to LBP. PMB, which competes with LBP for binding to LPS, was used as a positive control. A lipid-binding protein assay (Endoblock) was used to investigate whether Fh12 disrupts the interaction between LPS and LBP. Polymyxin-B (100 μM), which is known to compete with LBP for binding to LPS, blocked LBP/LPS binding.

Substance: polymyxin-B [PMB]
- NF-κB expression, antagonist control [1]: completely suppressed
- LBP/LPS binding, positive control [2]: blocked
